Laboratory results reported in article PMC10046369, “Low-Affinity/High-Selectivity Dopamine Transport Inhibition Sufficient to Rescue Cognitive Functions in the Aging Rat” (Biomolecules, 2023).

How the values were obtained:
[1] = target: T1, IP (PGI2) (h) (Homo sapiens, UniProt P43119); assay: cell-based; set-up: functional GPCR antagonist screen (Eurofins Cerep), percent inhibition of control agonist response; settings: antagonist effect, against control agonist; read-out: % Inhibition of Control Agonist Response, Mean
T1 construct: gene PTGIR

[2] = target: T2, M1 (h) (Homo sapiens, UniProt P11229); assay: cell-based; set-up: functional GPCR antagonist screen (Eurofins Cerep), percent inhibition of control agonist response; settings: antagonist effect, against control agonist; read-out: % Inhibition of Control Agonist Response, Mean
T2 construct: gene CHRM1

[3] = target: T3, MT2 (ML1B) (h) (Homo sapiens, UniProt P49286); assay: cell-based; set-up: functional GPCR antagonist screen (Eurofins Cerep), percent inhibition of control agonist response; settings: antagonist effect, against control agonist; read-out: % Inhibition of Control Agonist Response, Mean
T3 construct: gene MTNR1B

[4] = target: T4, NK1 (h) (Homo sapiens, UniProt P25103); assay: cell-based; set-up: functional GPCR antagonist screen (Eurofins Cerep), percent inhibition of control agonist response; settings: antagonist effect, against control agonist; read-out: % Inhibition of Control Agonist Response, Mean
T4 construct: gene TACR1

[5] = target: FRK (Homo sapiens, UniProt P42685); assay: biochemical; set-up: KINOMEscan competition binding panel, per cent of control; settings: read-out: %Ctrl @ 2800nM
In short: (§1)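 Competition binding panel (KINOMEscan) across 450 human kinases and disease-relevant mutants, run to the contractor's standard protocol. Values are % control: (test signal − positive control signal)/(negative control signal − positive control signal) × 100, with lower values indicating stronger binding.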

[6] = target: T5, JAK1(JH2domain-pseudokinase) (Homo sapiens, UniProt P23458); assay: biochemical; set-up: KINOMEscan competition binding panel, per cent of control; settings: read-out: %Ctrl @ 2800nM
T5 construct: JH2domain-pseudokinase
In short: as §1

[7] = target: CLK4 (Homo sapiens, UniProt Q9HAZ1); assay: biochemical; set-up: KINOMEscan competition binding panel, per cent of control; settings: read-out: %Ctrl @ 2800nM
In short: as §1

[8] = target: PIM3 (Homo sapiens, UniProt Q86V86); assay: biochemical; set-up: KINOMEscan competition binding panel, per cent of control; settings: read-out: %Ctrl @ 2800nM
In short: as §1

[9] = target: EPHA4 (Homo sapiens, UniProt P54764); assay: biochemical; set-up: KINOMEscan competition binding panel, per cent of control; settings: read-out: %Ctrl @ 2800nM
In short: as §1

[10] = target: T6, JNK2 (Homo sapiens, UniProt P45984); assay: biochemical; set-up: KINOMEscan competition binding panel, per cent of control; settings: read-out: %Ctrl @ 2800nM
T6 construct: gene MAPK9
In short: as §1

[11] = target: T7, ADCK3 (Homo sapiens, UniProt Q8NI60); assay: biochemical; set-up: KINOMEscan competition binding panel, per cent of control; settings: read-out: %Ctrl @ 2800nM
T7 construct: gene COQ8A
In short: as §1

[12] = target: TNIK (Homo sapiens, UniProt Q9UKE5); assay: biochemical; set-up: KINOMEscan competition binding panel, per cent of control; settings: read-out: %Ctrl @ 2800nM
In short: as §1

[13] = target: BRSK2 (Homo sapiens, UniProt Q8IWQ3); assay: biochemical; set-up: KINOMEscan competition binding panel, per cent of control; settings: read-out: %Ctrl @ 2800nM
In short: as §1

[14] = target: FGFR3 (Homo sapiens, UniProt P22607); assay: biochemical; set-up: KINOMEscan competition binding panel, per cent of control; settings: read-out: %Ctrl @ 2800nM
In short: as §1

[15] = target: MAP4K4 (Homo sapiens, UniProt O95819); assay: biochemical; set-up: KINOMEscan competition binding panel, per cent of control; settings: read-out: %Ctrl @ 2800nM
In short: as §1

[16] = target: GRK3 (Homo sapiens, UniProt P35626); assay: biochemical; set-up: KINOMEscan competition binding panel, per cent of control; settings: read-out: %Ctrl @ 2800nM
In short: as §1

[17] = target: GRK4 (Homo sapiens, UniProt P32298); assay: biochemical; set-up: KINOMEscan competition binding panel, per cent of control; settings: read-out: %Ctrl @ 2800nM
In short: as §1

[18] = target: T8, RSK1(Kin.Dom.2-C-terminal) (Homo sapiens, UniProt Q15418); assay: biochemical; set-up: KINOMEscan competition binding panel, per cent of control; settings: read-out: %Ctrl @ 2800nM
T8 construct: gene RPS6KA1; Kin.Dom.2-C-terminal
In short: as §1

[19] = target: EPHB4 (Homo sapiens, UniProt P54760); assay: biochemical; set-up: KINOMEscan competition binding panel, per cent of control; settings: read-out: %Ctrl @ 2800nM
In short: as §1

[20] = target: CDKL5 (Homo sapiens, UniProt O76039); assay: biochemical; set-up: KINOMEscan competition binding panel, per cent of control; settings: read-out: %Ctrl @ 2800nM
In short: as §1

[21] = target: T9, PAK7 (Homo sapiens, UniProt Q9P286); assay: biochemical; set-up: KINOMEscan competition binding panel, per cent of control; settings: read-out: %Ctrl @ 2800nM
T9 construct: gene PAK5
In short: as §1

[22] = target: T10, PKAC-alpha (Homo sapiens, UniProt P17612); assay: biochemical; set-up: KINOMEscan competition binding panel, per cent of control; settings: read-out: %Ctrl @ 2800nM
T10 construct: gene PRKACA
In short: as §1

[23] = target: PKNB(M.tuberculosis) (Mycobacterium tuberculosis, UniProt P9WI81); assay: biochemical; set-up: KINOMEscan competition binding panel, per cent of control; settings: read-out: %Ctrl @ 2800nM
[24] = target: T11, PFPK5(P.falciparum) (Plasmodium falciparum, UniProt P61075); assay: biochemical; set-up: KINOMEscan competition binding panel, per cent of control; settings: read-out: %Ctrl @ 2800nM
T11 construct: gene CRK2

[25] = target: T12, human dopamine transporter (hDAT) (Homo sapiens, UniProt Q01959); assay: radioligand competition binding ([3H]BTCP), hDAT expressed in CHO cells; type: cell-based
T12 construct: gene SLC6A3

T1 sequence (P43119 whole entry): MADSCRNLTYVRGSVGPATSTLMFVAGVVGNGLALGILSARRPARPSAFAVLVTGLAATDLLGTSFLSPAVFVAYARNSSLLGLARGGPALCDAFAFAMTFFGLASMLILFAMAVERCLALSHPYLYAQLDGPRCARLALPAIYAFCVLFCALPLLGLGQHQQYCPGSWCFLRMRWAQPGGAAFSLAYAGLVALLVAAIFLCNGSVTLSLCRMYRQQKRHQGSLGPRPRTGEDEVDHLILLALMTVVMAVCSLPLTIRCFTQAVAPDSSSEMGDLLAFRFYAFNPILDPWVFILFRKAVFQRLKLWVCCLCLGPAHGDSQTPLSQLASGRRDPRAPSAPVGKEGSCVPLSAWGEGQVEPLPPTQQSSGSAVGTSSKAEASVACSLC
Sequence of CDKL5 (O76039 whole entry): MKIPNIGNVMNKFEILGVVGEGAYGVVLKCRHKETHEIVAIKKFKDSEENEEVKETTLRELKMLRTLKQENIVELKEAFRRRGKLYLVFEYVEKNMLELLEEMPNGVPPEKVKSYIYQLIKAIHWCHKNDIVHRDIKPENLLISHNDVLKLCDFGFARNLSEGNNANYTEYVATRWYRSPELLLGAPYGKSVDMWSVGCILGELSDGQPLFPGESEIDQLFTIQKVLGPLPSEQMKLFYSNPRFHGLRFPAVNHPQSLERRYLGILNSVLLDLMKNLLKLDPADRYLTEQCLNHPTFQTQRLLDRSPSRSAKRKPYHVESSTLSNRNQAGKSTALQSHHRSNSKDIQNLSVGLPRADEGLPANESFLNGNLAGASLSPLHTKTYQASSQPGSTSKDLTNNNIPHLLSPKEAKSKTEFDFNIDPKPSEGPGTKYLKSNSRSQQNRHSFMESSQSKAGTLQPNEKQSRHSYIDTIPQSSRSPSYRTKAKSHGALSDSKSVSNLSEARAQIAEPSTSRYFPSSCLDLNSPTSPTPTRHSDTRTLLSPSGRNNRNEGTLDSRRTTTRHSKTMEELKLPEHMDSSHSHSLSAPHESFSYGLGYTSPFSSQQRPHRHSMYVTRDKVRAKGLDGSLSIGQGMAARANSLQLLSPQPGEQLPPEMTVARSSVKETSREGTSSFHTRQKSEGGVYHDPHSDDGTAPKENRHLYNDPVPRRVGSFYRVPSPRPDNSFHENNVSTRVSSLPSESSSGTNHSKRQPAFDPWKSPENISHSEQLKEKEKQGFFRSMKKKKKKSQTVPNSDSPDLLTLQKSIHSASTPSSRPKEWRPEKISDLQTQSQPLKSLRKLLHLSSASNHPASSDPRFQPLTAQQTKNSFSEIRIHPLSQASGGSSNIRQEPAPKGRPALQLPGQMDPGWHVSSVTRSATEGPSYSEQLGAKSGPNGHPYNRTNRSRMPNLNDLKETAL
T7 sequence (Q8NI60 whole entry): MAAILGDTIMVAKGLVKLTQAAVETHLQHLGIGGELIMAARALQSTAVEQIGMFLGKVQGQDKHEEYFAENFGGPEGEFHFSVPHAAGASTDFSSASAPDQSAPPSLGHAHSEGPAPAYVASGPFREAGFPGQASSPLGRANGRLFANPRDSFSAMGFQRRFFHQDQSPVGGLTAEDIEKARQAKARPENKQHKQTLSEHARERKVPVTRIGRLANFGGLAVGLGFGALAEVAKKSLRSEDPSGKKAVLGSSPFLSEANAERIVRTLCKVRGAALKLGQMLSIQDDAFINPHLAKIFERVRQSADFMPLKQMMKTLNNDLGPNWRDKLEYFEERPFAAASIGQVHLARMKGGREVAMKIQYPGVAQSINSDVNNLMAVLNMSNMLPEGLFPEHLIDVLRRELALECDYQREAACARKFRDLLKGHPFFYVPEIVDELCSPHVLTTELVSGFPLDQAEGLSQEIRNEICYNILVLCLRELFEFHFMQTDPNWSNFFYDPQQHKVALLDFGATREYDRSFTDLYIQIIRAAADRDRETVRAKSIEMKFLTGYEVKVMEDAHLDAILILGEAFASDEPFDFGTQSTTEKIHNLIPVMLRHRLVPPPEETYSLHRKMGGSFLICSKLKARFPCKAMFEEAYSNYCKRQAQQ
Sequence of CLK4 (Q9HAZ1 whole entry): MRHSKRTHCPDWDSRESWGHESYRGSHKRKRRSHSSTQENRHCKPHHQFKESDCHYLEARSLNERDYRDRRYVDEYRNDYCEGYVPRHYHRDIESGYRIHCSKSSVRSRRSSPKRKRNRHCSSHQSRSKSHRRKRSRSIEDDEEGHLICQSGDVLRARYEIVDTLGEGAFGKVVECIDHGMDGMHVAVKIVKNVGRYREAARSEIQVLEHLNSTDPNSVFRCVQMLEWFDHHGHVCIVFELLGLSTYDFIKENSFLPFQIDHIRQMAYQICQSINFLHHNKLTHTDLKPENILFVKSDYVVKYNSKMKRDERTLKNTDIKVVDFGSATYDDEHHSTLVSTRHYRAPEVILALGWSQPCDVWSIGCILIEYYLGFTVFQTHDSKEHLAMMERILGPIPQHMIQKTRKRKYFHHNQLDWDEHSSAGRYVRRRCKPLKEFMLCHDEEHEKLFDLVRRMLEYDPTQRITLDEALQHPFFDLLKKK
T6 sequence (P45984 whole entry): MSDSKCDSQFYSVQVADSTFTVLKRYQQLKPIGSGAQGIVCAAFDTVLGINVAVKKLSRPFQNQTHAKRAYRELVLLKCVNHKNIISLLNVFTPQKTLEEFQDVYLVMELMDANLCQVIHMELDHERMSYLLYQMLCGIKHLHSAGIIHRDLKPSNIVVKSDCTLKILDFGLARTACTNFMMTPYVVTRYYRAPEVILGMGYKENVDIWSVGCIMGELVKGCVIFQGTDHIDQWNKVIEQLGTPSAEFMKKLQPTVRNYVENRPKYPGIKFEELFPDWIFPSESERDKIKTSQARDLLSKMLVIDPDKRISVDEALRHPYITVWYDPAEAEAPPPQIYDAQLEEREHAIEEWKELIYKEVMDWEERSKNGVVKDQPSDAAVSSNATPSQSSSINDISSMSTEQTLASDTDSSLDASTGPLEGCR
Sequence of EPHB4 (P54760 whole entry): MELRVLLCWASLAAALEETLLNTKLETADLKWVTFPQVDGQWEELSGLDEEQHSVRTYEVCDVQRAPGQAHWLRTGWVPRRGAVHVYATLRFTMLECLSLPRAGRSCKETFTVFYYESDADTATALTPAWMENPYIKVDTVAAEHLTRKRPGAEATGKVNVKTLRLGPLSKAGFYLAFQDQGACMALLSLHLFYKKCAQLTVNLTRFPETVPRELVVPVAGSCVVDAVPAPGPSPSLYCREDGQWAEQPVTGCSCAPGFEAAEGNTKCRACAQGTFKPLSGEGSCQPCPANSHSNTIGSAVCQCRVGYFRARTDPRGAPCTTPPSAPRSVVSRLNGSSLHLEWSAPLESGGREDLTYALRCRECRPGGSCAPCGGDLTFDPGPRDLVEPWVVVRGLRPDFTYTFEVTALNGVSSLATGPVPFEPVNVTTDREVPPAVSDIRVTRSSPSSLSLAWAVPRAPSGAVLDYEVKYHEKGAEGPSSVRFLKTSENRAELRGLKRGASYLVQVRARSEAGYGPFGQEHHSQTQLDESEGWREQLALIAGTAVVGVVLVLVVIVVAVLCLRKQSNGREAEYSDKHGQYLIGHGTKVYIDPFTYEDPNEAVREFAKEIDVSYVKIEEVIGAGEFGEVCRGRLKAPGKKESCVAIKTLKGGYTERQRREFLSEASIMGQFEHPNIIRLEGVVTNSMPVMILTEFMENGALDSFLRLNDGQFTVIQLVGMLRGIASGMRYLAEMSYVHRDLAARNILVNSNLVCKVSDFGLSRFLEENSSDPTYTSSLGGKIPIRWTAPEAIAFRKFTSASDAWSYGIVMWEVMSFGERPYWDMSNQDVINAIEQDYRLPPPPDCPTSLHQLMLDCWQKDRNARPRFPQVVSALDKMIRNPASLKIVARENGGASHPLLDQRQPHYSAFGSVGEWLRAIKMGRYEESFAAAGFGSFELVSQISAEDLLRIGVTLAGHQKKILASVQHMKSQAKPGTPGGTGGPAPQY
T4 sequence (P25103 whole entry): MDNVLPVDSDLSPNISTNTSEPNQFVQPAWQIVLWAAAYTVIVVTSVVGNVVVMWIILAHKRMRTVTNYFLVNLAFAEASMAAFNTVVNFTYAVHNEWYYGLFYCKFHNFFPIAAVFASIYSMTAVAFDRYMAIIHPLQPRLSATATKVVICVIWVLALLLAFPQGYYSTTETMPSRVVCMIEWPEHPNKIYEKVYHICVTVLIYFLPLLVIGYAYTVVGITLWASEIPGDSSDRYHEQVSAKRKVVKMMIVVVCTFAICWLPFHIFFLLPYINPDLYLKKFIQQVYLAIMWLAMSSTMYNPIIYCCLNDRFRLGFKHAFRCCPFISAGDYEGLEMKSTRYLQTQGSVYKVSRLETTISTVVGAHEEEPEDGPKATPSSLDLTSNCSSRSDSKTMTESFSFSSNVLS
Sequence of PKNB(M.tuberculosis) (P9WI81 whole entry): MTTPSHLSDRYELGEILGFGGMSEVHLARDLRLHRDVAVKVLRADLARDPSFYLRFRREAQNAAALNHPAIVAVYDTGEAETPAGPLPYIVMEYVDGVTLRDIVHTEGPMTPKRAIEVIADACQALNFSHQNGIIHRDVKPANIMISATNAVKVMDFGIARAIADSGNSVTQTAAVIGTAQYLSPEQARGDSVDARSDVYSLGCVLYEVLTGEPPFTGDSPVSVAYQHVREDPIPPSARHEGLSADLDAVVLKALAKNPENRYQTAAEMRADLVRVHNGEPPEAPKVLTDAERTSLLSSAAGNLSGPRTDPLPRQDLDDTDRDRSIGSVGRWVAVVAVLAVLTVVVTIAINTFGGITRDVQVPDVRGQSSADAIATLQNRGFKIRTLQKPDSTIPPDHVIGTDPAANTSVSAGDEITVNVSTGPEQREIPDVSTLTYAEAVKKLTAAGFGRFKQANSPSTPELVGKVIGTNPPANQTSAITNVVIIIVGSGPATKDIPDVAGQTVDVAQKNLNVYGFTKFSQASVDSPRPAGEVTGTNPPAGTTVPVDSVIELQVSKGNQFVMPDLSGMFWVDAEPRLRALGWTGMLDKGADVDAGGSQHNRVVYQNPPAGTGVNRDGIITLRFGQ

Structure (SMILES): [O-][S@@+](Cc1cncs1)C(c1ccccc1)c1ccccc1 [S-CE-123, (S)-5-((Benzhydrylsulfinyl)Methyl)Thiazole]
- inhibition at 2.8 µM [1]: 16.3%
- inhibition at 2.8 µM [2]: 2.6%
- inhibition at 2.8 µM [3]: 6.2%
- inhibition at 2.8 µM [4]: -5.3%
- remaining binding at 2.8 µM [5]: 96%
- remaining binding at 2.8 µM [6]: 92%
- remaining binding at 2.8 µM [7]: 100%
- remaining binding at 2.8 µM [8]: 100%
- remaining binding at 2.8 µM [9]: 97%
- remaining binding at 2.8 µM [10]: 90%
- remaining binding at 2.8 µM [11]: 87%
- remaining binding at 2.8 µM [12]: 89%
- remaining binding at 2.8 µM [13]: 100%
- remaining binding at 2.8 µM [14]: 91%
- remaining binding at 2.8 µM [15]: 100%
- remaining binding at 2.8 µM [16]: 100%
- remaining binding at 2.8 µM [17]: 73%
- remaining binding at 2.8 µM [18]: 92%
- remaining binding at 2.8 µM [19]: 95%
- remaining binding at 2.8 µM [20]: 97%
- remaining binding at 2.8 µM [21]: 98%
- remaining binding at 2.8 µM [22]: 95%
- remaining binding at 2.8 µM [23]: 96%
- remaining binding at 2.8 µM [24]: 84%
- Ki [25]: 610 nM
